Here are results for one substance from US20120225123A1, “Use of Synergistic Combinations of an Avermectin and an Antineoplastic Compounds for the Treatment of Hematological Malignancies” (UNIVERSITY HEALTH NETWORK, priority 2009, published 2012).

A value given as a limit tells only on which side of the number the result lay.

Data set [1] has as its system acute myeloid leukemia (AML) patient samples. In words: Cell viability by Annexin V and PI staining, AML patient samples. Conditions: 48 hours. It counts as cell-based, human. The method, then: Primary human acute myeloid leukemia (AML) samples were isolated from fresh bone marrow and peripheral blood samples of consenting patients. Similarly, primary normal hematopoietic cells were obtained from healthy consenting volunteers donating peripheral blood mononuclear cells
(PBSCs) for stem cell transplantation. The mononuclear cells were isolated from the samples by Ficoll density centrifugation. Primary cells were cultured at 37° C. in IMDM supplemented with 20% FCS and appropriate antibiotics.
Cell growth and viability was assessed by the MTS assay (Promega, Madison, Wis.) according to the manufacturer's instructions and as previously described.^12 Cell death was measured by Annexin V-fluoroscein isothiocyanate (FITC) and Propidium Iodide (PI; Biovision Research Products, Mountain View, Calif.) staining and flow cytometry according to the manufacturer's instructions and as previously described.^13 To identify CD34+ cells, a normal PBSC sample was co-stained with PE-anti-CD34+ (Beckman Coulter, Marseille France), and APC-anti-CD45 (Becton Dickenson, San Jose Calif.).
Given the cytotoxicity of IVM toward leukemia cell lines, its cytotoxicity was compared to primary normal hematopoietic cells and acute myeloid leukemia (AML) patient samples (n=4 intermediate risk cytogenetics, n=1 good risk cytogenetics, and n=1 unknown cytogenetics). […]

Data set [2] concerns normal hematopoetic cells. In words: Clonogenic (methylcellulose colony forming) assay, normal cells. It counts as cell-based, human. To be noted: ivermectin 6 μM, n=3. How it is done: To assess clonogenic growth, primary AML cells or granulocyte colony-stimulating factor (G-CSF) mobilized PBSCs (4×10^5/mL) were treated with IVM or buffer control for 24 hours. After treatment, cells were washed and 10^5 cell/mL were plated in duplicate in MethoCult GF H4434 medium (StemCell Technologies, Vancouver, BC) containing 1% methycellulose in IMDM, 30% FCS, 1% bovine serum albumin, 3 U/mL of recombinant human erythropoietin, 10^−4 M of 2-mercaptoethanol, 2 mM of L-glutamine, 50 ng/mL of recombinant human stem cell factor, 10 ng/mL of GM-CSF, and 10 ng/mL of rh IL-3. Alternatively, primary cells were plated directly into MethoCult GF H4434 medium with ivermectin. Seven days (AML samples) or 14 days (normal PBCS) after plating, the number of colonies containing 10 or more cells for AML or over 100 cells for normal samples was counted as previously described.^14
Ivermectin was also evaluated in clonogenic assays in primary normal hematopoietic and AML cells. Ivermectin (6 μM) had minimal effects on the clonogenic growth of normal hematopoetic cells (n=3) with <15% reduction in clonogenic growth. In contrast, ivermectin reduced clonogenic growth by ≧40% in 3/6 primary AML samples (FIG. 1D). Similar effects were noted when primary cells were directly plated into clonogenic assays with ivermectin (FIG. 1G).

The subject of data set [3] is OCI-AML2 subcutaneous xenografts. In words: OCI-AML2 xenograft, intraperitoneal ivermectin: Tunel staining and STAT1 Q-RT-PCR. It counts as in vivo, mouse. How it is done: In order to measure gene expression changes in vivo, OCI-AML2 cells (2.5×10^5) were injected subcutaneously into the flanks of sub-lethally irradiated NOD/SCID mice. Once tumors were established, mice were treated with ivermectin (7 mg/kg) or vehicle control intraperitoneally for 5 days. After treatment, mice were sacrificed, and tumors harvested. mRNA was extracted and changes in STAT expression were measured by quantitative RT-PCR (QRT-PCR). Evidence of apoptosis was measured by Tunel staining and immunohistochemistry (Pathology Research Program, University Health Network, Toronto, Canada).
Changes in ROS production are indicative of a biological response to ivermectin, but are very difficult to measure in the context of a clinical trial. Therefore, to identify alterations in gene expression that are a result of ROS production and could be used as biomarkers in the context of a clinical trial, gene expression profiling analysis (using Affymetrix HG U133 Plus 2.0 arrays) RNA derived from OCI-AML2 cells treated with ivermectin for 30 hr and 40 hr was undertaken. One hundred and fifty genes were deregulated >4-fold at both time points (33 under-expressed; 117 over-expressed) compared to control. […] Changes in STAT1 expression in tumors from a leukemia xenograft model were also evaluated. […] After treatment, tumors were harvested, mRNA extracted, and STAT1 expression measured by Q-RT PCR.

In data set [4] the test system is OCI-AML2 cells. In words: Intracellular chloride (SPQ) and cell size (forward light scatter), OCI-AML2. It is filed as cell-based, human. The method, then:
(§1) Intracellular chloride concentration was measured using a fluorescent indicator for chloride, SPQ as previously described.^16 Upon binding halide ions like chloride, SPQ is quenched resulting in a decrease in fluorescence without a shift in wavelength. […] After 15 minutes of incubation with SPQ, cells were diluted 15:1 in HBSS and centrifuged. The supernatant was removed, cells were resuspended in 200 μl of fresh HBSS and incubated for 15 minutes in 37° C. to allow recovery from the hypotonic shock. Cells were then stained with propidium iodide and SPQ fluorescence in the PI negative cells was determined using an LSR-II flow cytometer (Beckton Dickonson, San Jose, Calif.) (excitation 351 nm, emission 485 nm). In parallel, changes in cell size were determined by measuring forward light scatter by flow cytometry. Results were analyzed with FlowJo version 8.8 (TreeStar, Ashland, Oreg.).

For data set [5], the system named is DU145 cells. In words: Intracellular chloride (SPQ) and cell size (forward light scatter), DU145. It counts as cell-based, human. To be noted: 10 μM IVM, 2 hours. The method, then: as §1
Data set [6] has as its system OCI-AML2 cells. In words: Reactive oxygen species, Carboxy-H2DCFDA staining, OCI-AML2. It is filed as cell-based, human. To be noted: increasing concentrations, flow cytometry. How it is done:
Data were analyzed with FlowJo version 8.8 (TreeStar, Ashland, Oreg.).

For data set [7] the following is noted: cited from earlier work.
In data set [8] the test system is mice. To be noted: oral; cited from earlier work.
Where [9] appears, read: healthy male volunteers, 14 mg capsule of radiolabelled ivermectin.
The mark [10] stands for this setting: onchocerciasis patients, single oral dose of 150 μg/kg.

As for ivermectin, in data set [1], the cytotoxicity result is given as “cytotoxic to AML patient samples at low micromolar concentrations”. Further, the “reduction in clonogenic growth” value in data set [2] was < 15%. In addition, in data set [3] (7 mg/kg intraperitoneally for 5 days), the “apoptosis in the subcutaneous tumor, Tunel staining” value was “increased apoptosis”. Also, the “STAT1 mRNA in tumors vs vehicle control” value in data set [3] (ivermectin for 5 days, Q-RT PCR) is on record as “increased in two of three tested tumors”. Moreover, in data set [4] (10 μM IVM, 2 hours), the “intracellular chloride, SPQ fluorescence” value is reported as “decreased SPQ fluorescence”. In data set [4] (2 hours of treatment, flow cytometry), the cell size entry is “caused an increase in cell size”. Further, the chloride influx entry in data set [5] is “chloride influx was not observed”. Besides, the ROS production result in data set [6] is “increased ROS production”. Further, the “time over which IVM and/or metabolites are excreted in the feces” value in data set [7] (estimated) is given as ~12 days. In data set [7] (setting [9]), the half-life was 11.8 h and the “mean Tmax” value was 6 h. Also, in data set [7] (in vivo), the “administered dose excreted in the urine” value is given as < 1%. In addition, in data set [7] (setting [10]), the “area under the curve over 48 hours” value is 2852 ng·h/mL, the maximum plasma concentration was 52.0 ng/mL and the “time to maximum plasma concentration” value was 5.2 h. Also, the LD50 in data set [8] was 28 to 30 mg/kg.
